Values after ≈ are worked out from the molar mass of the structure shown. Peptide text beside a SMILES is read from it.
Test system: A. baumannii
Format: cell-based
Conditions: not given
Excerpt: Broth dilution methods are e.g., described by Lorian (2007) In: Antibiotics in Laboratory Medicine, Fifth Edition; and In: Clinical and Laboratory Standards Institute, CLSI (formerly NCCLS), In: Methods for Dilution Antimicrobial Susceptibility Tests for Bacteria that Grow Aerobically—Approved Standard—Seventh Edition, CLSI document M7-A7, Villanova, Pa. (NCCLS; January 2006; Vol. 26 No. 2); and In: Clinical and Laboratory Standards Institute, CLSI (formerly NCCLS), Performance Standards for Antimicrobial Susceptibility Testing, Seventeenth Informational Supplement, M100-S17, Vol 27 No. 1 January 2007, all of which are incorporated herein by reference.
The present inventors used such methods to quantitate activity in vitro of antimicrobial peptides of the invention against bacterial isolates, including laboratory strains and 50 clinical isolates of A. baumannii, and S. aureus ATCC Accession No. 2992. Briefly, small volumes of broth are dispensed in sterile, plastic microtiter trays, and 100 μl of serially-diluted antimicrobial peptide (0.1-64 μg) and 100 μl test organism (approximately 1×10^5 C.F.U.), are added. Following aerobic incubation overnight at 35±2° C. Control samples lacked peptide (Growth control), or lacked peptide and bacteria (Sterility control). The trays were examined visually and the minimal inhibitory concentration (MIC) of peptide required to inhibit bacterial growth were determined. The minimum bactericidal concentration (MBC) was estimated by sub-culturing the wells for which no bacterial growth was visible to the naked eye, to thereby determine a concentration of antimicrobial that reduces the original inoculum by at least about 99.9%.

Row | Structure (SMILES) | MIC | MIC (μM) for non-amidated Peptide | MBC | bactericidal or bacteriostatic against A. baumannii
1 | CC[C@H](C)[C@H](NC(=O)[C@H](CCC(N)=O)NC(=O)[C@H](CCCNC(=N)N)NC(=O)[C@H](CS)NC(=O)[C@@H](NC(=O)[C@H](CCCNC(=N)N)NC(=O)[C@H](CCCNC(=N)N)NC(=O)[C@H](CC(C)C)NC(=O)[C@H](CC(=O)O)NC(=O)[C@H](CCC(=O)O)NC(=O)[C@H](CCCNC(=N)N)NC(=O)[C@H](CC(C)C)NC(=O)[C@H](CCCNC(=N)N)NC(=O)CNC(=O)[C@H](CO)NC(=O)[C@H](Cc1ccccc1)NC(=O)[C@@H](NC(=O)[C@H](CC(C)C)NC(=O)[C@@H](NC(=O)CN)C(C)C)[C@@H](C)O)[C@@H](C)CC)C(=O)N[C@@H](CO)C(=O)N[C@@H](C)C(=O)N[C@@H](Cc1ccc(O)cc1)C(=O)O [Ac339] (H-GVLTFSGRLREDLRRICRQISAY-OH; N-terminus and C-terminus assumed) | 20 µM (≈ 54.2 µg/mL) | 20 µM | 40 µM (≈ 108 µg/mL) | 
2 | CC[C@H](C)[C@H](NC(=O)[C@H](CCC(N)=O)NC(=O)[C@H](CCCNC(=N)N)NC(=O)[C@H](CS)NC(=O)[C@@H](NC(=O)[C@H](CCCNC(=N)N)NC(=O)[C@H](CCCNC(=N)N)NC(=O)[C@H](CC(C)C)NC(=O)[C@H](CC(=O)O)NC(=O)[C@H](CCC(=O)O)NC(=O)[C@H](CCCNC(=N)N)NC(=O)[C@H](CC(C)C)NC(=O)[C@H](CCCNC(=N)N)NC(=O)CNC(=O)[C@@H](N)CO)[C@@H](C)CC)C(=O)N[C@@H](CO)C(=O)N[C@@H](C)C(=O)N[C@@H](Cc1ccc(O)cc1)C(=O)N[C@@H](CCCCN)C(=O)N[C@@H](CO)C(=O)N[C@@H](CC(=O)O)C(=O)N[C@@H](CO)C(=O)N[C@@H](CO)C(=O)O [Ac340] (H-SGRLREDLRRICRQISAYKSDSS-OH; N-terminus and C-terminus assumed) | 40 µM (≈ 108 µg/mL) |  | 40 µM (≈ 108 µg/mL) | 
3 | CC[C@H](C)[C@H](NC(=O)[C@H](CO)NC(=O)[C@H](Cc1c[nH]c2ccccc12)NC(=O)[C@H](CS)NC(=O)[C@H](CCCNC(=N)N)NC(=O)[C@H](CS)NC(=O)[C@@H](NC(=O)[C@@H](NC(=O)[C@@H]1CCCN1C(=O)[C@H](CCCNC(=N)N)NC(=O)[C@H](C)NC(=O)[C@H](C)NC(=O)[C@H](CS)NC(=O)[C@H](CCCNC(=N)N)NC(=O)[C@H](CCCCN)NC(=O)[C@H](CCCNC(=N)N)NC(=O)[C@@H](N)[C@@H](C)O)[C@@H](C)O)[C@@H](C)O)C(=O)NCC(=O)N[C@@H](CCCNC(=N)N)C(=O)N[C@@H](C)C(=O)N[C@@H](Cc1c[nH]c2ccccc12)C(=O)N[C@@H](CCCCN)C(=O)N[C@@H](C)C(=O)O [Ac364] (H-TRKRCAARPTTCRCWSIGRAWKA-OH; N-terminus and C-terminus assumed) | 40 µM (≈ 107 µg/mL) |  | 40 µM (≈ 107 µg/mL) | 
4 | CSCC[C@H](N)C(=O)NCC(=O)N[C@@H](CCCNC(=N)N)C(=O)N[C@@H](CC(C)C)C(=O)N[C@@H](CO)C(=O)NCC(=O)N[C@H](C(=O)N[C@@H](C)C(=O)N[C@@H](Cc1c[nH]c2ccccc12)C(=O)N[C@@H](CCCNC(=N)N)C(=O)N[C@@H](CCCNC(=N)N)C(=O)N[C@@H](CC(C)C)C(=O)N[C@@H](CO)C(=O)N[C@@H](CC(C)C)C(=O)N[C@@H](CCCNC(=N)N)C(=O)N[C@@H](Cc1c[nH]cn1)C(=O)N[C@@H](CS)C(=O)N[C@@H](CCC(=O)O)C(=O)N[C@@H](CS)C(=O)NCC(=O)N[C@@H](CCCNC(=N)N)C(=O)N[C@@H](CCCNC(=N)N)C(=O)N1CCC[C@H]1C(=O)O)C(C)C [Ac370] (H-MGRLSGVAWRRLSLRHCECGRRP-OH; N-terminus and C-terminus assumed) | 20 µM (≈ 53.9 µg/mL) | 20 µM | 20 µM (≈ 53.9 µg/mL) | 
5 | CC(C)C[C@H](NC(=O)CNC(=O)[C@H](CS)NC(=O)[C@H](CO)NC(=O)CNC(=O)[C@H](CCCNC(=N)N)NC(=O)[C@H](CS)NC(=O)[C@H](CCCCN)NC(=O)[C@H](CO)NC(=O)[C@H](CC(C)C)NC(=O)[C@@H](NC(=O)[C@H](CC(N)=O)NC(=O)[C@H](CS)NC(=O)[C@H](C)NC(=O)[C@H](CCCNC(=N)N)NC(=O)[C@H](Cc1c[nH]c2ccccc12)NC(=O)[C@H](CCCNC(=N)N)NC(=O)[C@H](Cc1c[nH]c2ccccc12)NC(=O)CNC(=O)[C@H](C)NC(=O)CN)[C@@H](C)O)C(=O)N[C@@H](CCCNC(=N)N)C(=O)N[C@H](C(=O)O)C(C)C [Ac379] (H-GAGWRWRACNTLSKCRGSCGLRV-OH; N-terminus and C-terminus assumed) | 30 µM (≈ 76.1 µg/mL) |  | 39 µM (≈ 99 µg/mL) | 
6 | CC(C)C[C@H](NC(=O)CNC(=O)[C@H](CS)NC(=O)[C@H](CO)NC(=O)CNC(=O)[C@H](CCCNC(=N)N)NC(=O)[C@H](CS)NC(=O)[C@H](CCCCN)NC(=O)[C@H](CO)NC(=O)[C@H](CC(C)C)NC(=O)[C@@H](NC(=O)[C@H](CC(N)=O)NC(=O)[C@H](CS)NC(=O)[C@H](C)NC(=O)[C@H](CCCNC(=N)N)NC(=O)[C@@H](N)Cc1c[nH]c2ccccc12)[C@@H](C)O)C(=O)N[C@@H](CCCNC(=N)N)C(=O)N[C@H](C(=O)N[C@@H](Cc1c[nH]c2ccccc12)C(=O)N[C@@H](C)C(=O)NCC(=O)N[C@@H](CCCNC(=N)N)C(=O)NCC(=O)O)C(C)C [Ac380] (H-WRACNTLSKCRGSCGLRVWAGRG-OH; N-terminus and C-terminus assumed) | 40 µM (≈ 102 µg/mL) |  |  | 
7 | CC[C@H](C)[C@H](NC(=O)[C@H](Cc1c[nH]c2ccccc12)NC(=O)[C@H](CCCNC(=N)N)NC(=O)[C@@H](N)CO)C(=O)N[C@@H](CS)C(=O)N[C@@H](CO)C(=O)N[C@@H](CCSC)C(=O)N[C@@H](C)C(=O)N[C@@H](CCCNC(=N)N)C(=O)N[C@@H](CCCNC(=N)N)C(=O)N[C@@H](CO)C(=O)N[C@@H](CCCNC(=N)N)C(=O)N[C@@H](CCCNC(=N)N)C(=O)N[C@@H](CCCNC(=N)N)C(=O)N[C@@H](CCCNC(=N)N)C(=O)N1CCC[C@H]1C(=O)NCC(=O)N[C@@H](CCCNC(=N)N)C(=O)N[C@@H](CO)C(=O)N[C@H](C(=O)N[C@@H](CCCNC(=N)N)C(=O)N[C@@H](CO)C(=O)N[C@@H](Cc1c[nH]c2ccccc12)C(=O)O)[C@@H](C)O [Ac390] (H-SRWICSMARRSRRRRPGRSTRSW-OH; N-terminus and C-terminus assumed) | 40 µM (≈ 116 µg/mL) |  | 40 µM (≈ 116 µg/mL) | 

More lines, main results first:

Row | MIC | MIC (μM) for non-amidated Peptide | Structure (SMILES) | MBC | bactericidal or bacteriostatic against A. baumannii
8 | 40 µM (≈ 103 µg/mL) |  | CC[C@H](C)[C@H](NC(=O)[C@@H]1CCCN1C(=O)[C@@H](NC(=O)[C@@H](NC(=O)[C@H](C)NC(=O)[C@H](CCCNC(=N)N)NC(=O)[C@H](CC(C)C)NC(=O)[C@@H](NC(=O)[C@H](C)NC(=O)[C@H](CCCNC(=N)N)NC(=O)[C@H](CC(C)C)NC(=O)[C@H](CCSC)NC(=O)[C@H](C)NC(=O)[C@@H](NC(=O)[C@@H]1CCCN1C(=O)[C@H](CC(C)C)NC(=O)[C@@H](N)C(C)C)C(C)C)[C@@H](C)O)[C@@H](C)O)C(C)C)C(=O)N[C@@H](CO)C(=O)N[C@@H](CCCNC(=N)N)C(=O)N[C@@H](CO)C(=O)N[C@@H](CCCNC(=N)N)C(=O)N[C@@H](CC(C)C)C(=O)N[C@@H](CCCNC(=N)N)C(=O)O [Ac434] (H-VLPVAMLRATLRATVPISRSRLR-OH; N-terminus and C-terminus assumed) | 40 µM (≈ 103 µg/mL) | 
9 | 40 µM (≈ 118 µg/mL) |  | CC[C@H](C)[C@H](NC(=O)[C@H](CCC(N)=O)NC(=O)[C@H](CCCNC(=N)N)NC(=O)[C@@H](NC(=O)[C@@H](NC(=O)[C@@H]1CCCN1)C(C)C)C(C)C)C(=O)N[C@@H](CC(C)C)C(=O)N[C@@H](CCCNC(=N)N)C(=O)N[C@@H](CO)C(=O)N[C@@H](CCC(=O)O)C(=O)N[C@@H](Cc1c[nH]c2ccccc12)C(=O)N[C@@H](CCCNC(=N)N)C(=O)N[C@@H](CC(N)=O)C(=O)N[C@@H](Cc1c[nH]c2ccccc12)C(=O)N[C@@H](CCCNC(=N)N)C(=O)N[C@@H](CCCCN)C(=O)N[C@@H](CO)C(=O)N[C@@H](CC(C)C)C(=O)N[C@@H](CCC(=O)O)C(=O)N[C@@H](CCSC)C(=O)N[C@@H](CCCNC(=N)N)C(=O)NCC(=O)N[C@@H](CCCNC(=N)N)C(=O)O [Ac437] (H-PVVRQILRSEWRNWRKSLEMRGR-OH; N-terminus and C-terminus assumed) |  | 
10 | 40 µM (≈ 97.5 µg/mL) |  | CC[C@H](C)[C@H](NC(=O)[C@H](CCCNC(=N)N)NC(=O)[C@@H]1CCCN1C(=O)CNC(=O)[C@H](C)NC(=O)[C@H](CCSC)NC(=O)[C@H](CCCNC(=N)N)NC(=O)[C@H](CC(C)C)NC(=O)[C@H](CCCNC(=N)N)NC(=O)[C@H](CS)NC(=O)[C@H](CS)NC(=O)[C@H](C)NC(=O)[C@H](Cc1c[nH]c2ccccc12)NC(=O)CNC(=O)[C@H](CS)NC(=O)CNC(=O)[C@H](C)NC(=O)[C@H](C)NC(=O)[C@@H]1CCCN1C(=O)[C@H](Cc1ccccc1)NC(=O)[C@H](Cc1c[nH]c2ccccc12)NC(=O)CN)C(=O)NCC(=O)O [Ac451] (H-GWFPAAGCGWACCRLRMAGPRIG-OH; N-terminus and C-terminus assumed) |  | 
11 | 50 µM (≈ 131 µg/mL) |  | CC[C@H](C)[C@H](NC(=O)[C@H](C)NC(=O)[C@H](Cc1c[nH]c2ccccc12)NC(=O)[C@H](CCCNC(=N)N)NC(=O)[C@H](CC(C)C)NC(=O)[C@H](CO)NC(=O)CNC(=O)[C@H](C)NC(=O)[C@H](CCCNC(=N)N)NC(=O)[C@H](Cc1c[nH]cn1)NC(=O)[C@H](CC(=O)O)NC(=O)[C@@H](NC(=O)[C@@H]1CCCN1C(=O)[C@H](CCCNC(=N)N)NC(=O)[C@@H]1CCCN1C(=O)[C@@H](N)CCCNC(=N)N)C(C)C)C(=O)N[C@@H](C)C(=O)N[C@@H](Cc1ccccc1)C(=O)N[C@@H](CCC(N)=O)C(=O)N[C@H](C(=O)N[C@@H](CO)C(=O)N[C@@H](CO)C(=O)N[C@@H](CC(C)C)C(=O)O)C(C)C [Ac469] (H-RPRPVDHRAGSLRWAIAFQVSSL-OH; N-terminus and C-terminus assumed) |  | bacteriostatic

Same assay, conditions: A. baumannii (Table 8); reduces original inoculum by at least about 99.9%

Row | Structure (SMILES) | MBC (μM)
12 | CC[C@H](C)[C@H](NC(=O)[C@H](C)NC(=O)[C@H](Cc1c[nH]c2ccccc12)NC(=O)[C@H](CCCNC(=N)N)NC(=O)[C@H](CC(C)C)NC(=O)[C@H](CO)NC(=O)CNC(=O)[C@H](C)NC(=O)[C@H](CCCNC(=N)N)NC(=O)[C@H](Cc1c[nH]cn1)NC(=O)[C@H](CC(=O)O)NC(=O)[C@@H](NC(=O)[C@@H]1CCCN1C(=O)[C@H](CCCNC(=N)N)NC(=O)[C@@H]1CCCN1C(=O)[C@@H](N)CCCNC(=N)N)C(C)C)C(=O)N[C@@H](C)C(=O)N[C@@H](Cc1ccccc1)C(=O)N[C@@H](CCC(N)=O)C(=O)N[C@H](C(=O)N[C@@H](CO)C(=O)N[C@@H](CO)C(=O)N[C@@H](CC(C)C)C(=O)O)C(C)C [Ac469] (H-RPRPVDHRAGSLRWAIAFQVSSL-OH; N-terminus and C-terminus assumed) | bacteriostat
